In US20030040531A1, “Remedies for reperfusion injury containing integrin alphanubeta 3 antagonist” (priority 2000, published 2003):
Read-outs that look alike come from different tables or passages of the source.

How the values were obtained:
[1] = tested on: rat peritoneal cavity macrophage
[2] = tested on: dog vascular smooth muscle cells; experiment: adhesion of dog vascular smooth muscle cells to bovine vitronectin; format: cell-based; settings: Canis lupus familiaris, read-out: concentration (IC50) necessary for inhibition of adhesion to vitronectin
Protocol: The adhesion of vascular smooth muscle cells to immobilized human vitronectin was measured in accordance with the method of Liaw et al. (L. Liaw et al., Circ. Res., 74, 214 (1994)). A Dulbecco's phosphate buffer (Dulbecco's PBS(−)) solution of human serum-derived vitronectin adjusted to a concentration of 4 μg/ml was first added to wells (50 μl/well) of a microplate (Maxisorp), and a reaction for immobilization was allowed to proceed at 4° C. overnight. After washing twice with 150 μl of Dulbecco's PBS (−), Dulbecco's PBS (−) containing 10 mg/ml of bovine serum albumin was added, followed by blocking at 37° C. for one hr. The microplate was then washed twice with 150 μl of Dulbecco's PBS (−) to prepare an assay plate.
Next, 50 μl of a Dulbecco's modified Eagle's basal medium containing 20 mg/ml of bovine serum albumin with a medicament added thereto was added to the wells of the human vitronectin-coated assay microplate, followed by pre-cultivation under 5% carbon dioxide at 37° C. for 10 min. Thereafter, 50 μl of the Dulbecco's modified Eagle's basal medium with human vascular smooth muscle cells suspended therein was added thereto, and the plate was thoroughly stirred. A reaction was allowed to proceed under 5% carbon dioxide at 37° C. for 90 min. The reaction solution containing non-adherent cells was then removed, followed by washing three times with Dulbecco's PBS (−). For the adhered cells, 100 μl of Dulbecco's PBS (−) containing 4% paraformaldehyde was added, and immobilization was allowed to proceed at room temperature for 10 min. Next, 100 μl of a Dulbecco's PBS (−) containing 0.5% Toluidine Blue and 4% paraformaldehyde was added, and staining was allowed to proceed at room temperature for 5 min, followed by thorough washing with distilled water. The inside of the wells was then air-dried, and 1% aqueous sodium dodecylsulfate solution was then added to perform cytolysis. The absorbance of the microplate thus obtained was measured at 595 nm. […] The inhibition was calculated by the following equation. IC50 was determined from a primary regression line of the logarithm of each concentration of the test compound and the logarithm of (100−inhibition)/inhibition. [formula]
Rat vascular smooth muscle cells were cultivated in a medium composed of a mixture of equal amounts of 15% fetal calf serum-containing 199 medium and RPMI 1640 medium. Separately, hamster and dog vascular smooth muscle cells were cultivated in a 10% fetal calf serum-containing Dulbecco's modified Eagle's basal medium. These cultivated cells were then suspended in a Dulbecco's modified Eagle's basal medium to concentrations of 3×10^5 cells/ml (rat), 3×10^5 cells/ml (hamster), and 4×10^5 cells /ml (dog), respectively. Rat vitronectin was used in the adhesion system of rats and hamsters, while bovine vitronectin was used in the adhesion system of dogs.

[3] = tested on: hamster acute ischemia-reperfusion model; experiment: hamster acute ischemia-reperfusion model; format: in vivo; settings: for reduction of myocardial infarct size (IS/AR): sodium salt mixed with arginine; for myocardial infarct size (IS/AR): average±SE, n=5, solvent administration group 49.3±7.1%
Protocol: A polyethylene tube was inserted into the carotid artery and the survical vein of Syrian male hamsters (10 to 13 weeks old) under pentobarbital anesthesia (60 mg/kg, i.p.). An electrocardiogram (I or II leading) was measured through a bioelectricity amplifier by leading from electrodes which had pierced the limbs. A polyethylene tube was inserted into the trachea, and artificial respiration was carried out with an artificial respirator (amount of ventilation: 10 ml/kg/stroke, number of times of ventilation: 70 strokes/min). The blood pressure was measured through a blood pressure amplifier, and the heart rate was measured with a heart rate unit using blood pressure as a trigger. The animals underwent thoracotomy, and the coronary, together with the myocardium, was then occluded using a suture with a needle. Ischemia for 90 min was followed by reperfusion for 2 hr to quantitatively determine myocardial infarct size.
A sodium salt of the compound represented by formula (IV) was mixed with a 2-fold equivalent of arginine, and the mixture was dissolved in a 5% glucose solution. The dose volume was 2 ml/kg+2 ml/kg/h (bolus +infusion). For a solvent administration group, a 0.64 mg/ml arginine/5% glucose solution was used. The medicament was continuously administered through an infusion pump for the period starting with one min before ischemia and ending with the completion of the experiment. After reperfusion for 2 hr, the animals were slaughtered by intraveneous injection of 1,000 U/kg of heparin and an excessive amount of pentobarbital, and the heart was then removed. After perfusion with a Ringer solution, blood was washed away from the heart, and the coronary artery was re-occluded. After the reocclusion, 0.4 ml of 0.1% Evans blue was injected through the aorta. The heart was rinsed with physiological saline and was then cut into about 1 mm slices. For each slice, the left ventricle (LV) was separated, and the weight of the left ventricle and the weight of the area-at-risk (AR) were measured. The area-at-risk was stained with a 50 mM Tris.HCl (pH 7.4, 37° C.) buffer containing 1.5% triphenyltetrazolium chloride heated at 37° C., and the weight of the infarct area (IS; infarct size) was measured. The measurement of the weight was carried out under a blind.

In the case of `O=C(NCC(NS(=O)(=O)c1ccccc1)C(=O)O)c1ccc(N2CCC(NC3=NCCCN3)CC2)c(F)c1` (stereo in doubt) [formula (IV), (2S)-Benzenesulfonylamino-3-[3-fluoro-4-{4-(1,4,5,6-tetrahydropyrimidin-2-ylamino)-piperidin-1-yl}benzoylamino]propionic Acid], the “fluorescence intensity (adhered rat macrophage)” value (“fluorescence intensity” for short) ([1]; 0.1 µM) is reported as 0.086±0.069 arbitrary unit, the “fluorescence intensity” value ([1]; 1 µM) is reported as 0.031 +0.037 arbitrary unit and the “fluorescence intensity” value ([1]; 10 µM) is reported as 0.012 +0.038 arbitrary unit. The IC50 [2] was 0.026 µM, the “reduction of myocardial infarct size (IS/AR)” value ([3]; group H 1.0 mg/kg+1.0 mg/kg/h (bolus+infusion), significant difference) was 49.3% and the “myocardial infarct size (IS/AR)” value ([3]; group H 1.0 mg/kg+1.0 mg/kg/h) was 25.0±2.8%. The “reduction of myocardial infarct size (IS/AR)” value ([3]; group L 0.33 mg/kg+0.33 mg/kg/h (bolus+infusion)) was 30.9% and the “myocardial infarct size (IS/AR)” value ([3]; group L 0.33 mg/kg+0.33 mg/kg/h) was 34.0±5.0%.
